Species on record: Rattus norvegicus
Assay: DrugMatrix - Regimen: Daily Repeat
Assay type: toxicity, organism-based, Sprague-Dawley
Set-up: regimen Daily Repeat, gender Male, age 6-8 weeks
Settings: in vivo, po, route oral GAVAGE, vehicle 100 % WATER; for ABSOLUTE BASOPHIL / ABSOLUTE EOSINOPHIL / ABSOLUTE LYMPHOCYTE / ABSOLUTE MONOCYTE / ABSOLUTE SEGMENTED NEUTROPHIL / BASOPHIL / EOSINOPHIL / ERYTHROCYTE COUNT / HEMATOCRIT / HEMOGLOBIN / LEUKOCYTE COUNT / LYMPHOCYTE / MEAN CORPUSCULAR HEMOGLOBIN / MEAN CORPUSCULAR HEMOGLOBIN CONCENTRATION / MEAN CORPUSCULAR VOLUME / MONOCYTE / NEUTROPHIL / NUCLEATED RED BLOOD CELLS / PLATELET COUNT: tissue Blood; for ALANINE AMINOTRANSFERASE / ALBUMIN / ALKALINE PHOSPHATASE / ASPARTATE AMINOTRANSFERASE / BLOOD UREA NITROGEN / CARBON DIOXIDE / CHLORIDE / CHOLESTEROL / CREATINE PHOSPHOKINASE / CREATININE / GLUCOSE / LACTATE DEHYDROGENASE / LIPASE / PHOSPHORUS / POTASSIUM / SODIUM / TOTAL BILIRUBIN / TOTAL PROTEIN / URIC ACID: tissue Plasma
[1] = 30 mg/kg, 120 h, dose level Low, time 5 day
[2] = 2000 mg/kg, 72 h, dose level High, time 3 day
[3] = 2000 mg/kg, 120 h, dose level High, time 5 day

CC(C)NCC(O)c1ccc(NS(C)(=O)=O)cc1 (centres undefined) [SOTALOL]
ABSOLUTE BASOPHIL [1]: 0 CELLS/uL
ABSOLUTE EOSINOPHIL [1]: 80.67 CELLS/uL
ABSOLUTE LYMPHOCYTE [1]: 11724 CELLS/uL
ABSOLUTE MONOCYTE [1]: 98 CELLS/uL
ABSOLUTE SEGMENTED NEUTROPHIL [1]: 997.33 CELLS/uL
BASOPHIL [1]: 0%
EOSINOPHIL [1]: 0.67%
ERYTHROCYTE COUNT [1]: 5.34 x10E6/uL
HEMATOCRIT [1]: 34.2%
HEMOGLOBIN [1]: 13.43 G/DL
LEUKOCYTE COUNT [1]: 12.9 x10E3/uL
LYMPHOCYTE [1]: 90.67%
MEAN CORPUSCULAR HEMOGLOBIN [1]: 25.17 pg
MEAN CORPUSCULAR HEMOGLOBIN CONCENTRATION [1]: 39.27 G/DL
MEAN CORPUSCULAR VOLUME [1]: 64 fL
MONOCYTE [1]: 0.67%
NEUTROPHIL [1]: 8%
NUCLEATED RED BLOOD CELLS [1]: 0 /100WBC
PLATELET COUNT [1]: 1232.33 x10E3/uL
ALANINE AMINOTRANSFERASE [1]: 48 u/L
ALBUMIN [1]: 4.27 G/DL
ALKALINE PHOSPHATASE [1]: 355 u/L
ASPARTATE AMINOTRANSFERASE [1]: 104.33 u/L
BLOOD UREA NITROGEN [1]: 17 mg/dL
CARBON DIOXIDE [1]: 28.33 mmol/L
CHLORIDE [1]: 105 MEQ/L
CHOLESTEROL [1]: 70.67 mg/dL
CREATINE PHOSPHOKINASE [1]: 193.67 u/L
CREATININE [1]: 0.2 mg/dL
GLUCOSE [1]: 131.67 mg/dL
LACTATE DEHYDROGENASE [1]: 156 u/L
LIPASE [1]: 9.33 u/L
PHOSPHORUS [1]: 11.6 mg/dL
POTASSIUM [1]: 6.59 MEQ/L
SODIUM [1]: 150.53 MEQ/L
TOTAL BILIRUBIN [1]: 0.2 mg/dL
TOTAL PROTEIN [1]: 6.13 G/DL
URIC ACID [1]: 1.17 mg/dL
ABSOLUTE BASOPHIL [2]: 0 CELLS/uL
ABSOLUTE EOSINOPHIL [2]: 0 CELLS/uL
ABSOLUTE LYMPHOCYTE [2]: 13259 CELLS/uL
ABSOLUTE MONOCYTE [2]: 47.67 CELLS/uL
ABSOLUTE SEGMENTED NEUTROPHIL [2]: 926.67 CELLS/uL
BASOPHIL [2]: 0%
EOSINOPHIL [2]: 0%
ERYTHROCYTE COUNT [2]: 5.36 x10E6/uL
HEMATOCRIT [2]: 33.57%
HEMOGLOBIN [2]: 13.17 G/DL
LEUKOCYTE COUNT [2]: 14.23 x10E3/uL
LYMPHOCYTE [2]: 93%
MEAN CORPUSCULAR HEMOGLOBIN [2]: 24.57 pg
MEAN CORPUSCULAR HEMOGLOBIN CONCENTRATION [2]: 39.23 G/DL
MEAN CORPUSCULAR VOLUME [2]: 62.73 fL
MONOCYTE [2]: 0.33%
NEUTROPHIL [2]: 6.67%
NUCLEATED RED BLOOD CELLS [2]: 0 /100WBC
PLATELET COUNT [2]: 1424.33 x10E3/uL
ALANINE AMINOTRANSFERASE [2]: 61 u/L
ALBUMIN [2]: 3.9 G/DL
ALKALINE PHOSPHATASE [2]: 388.67 u/L
ASPARTATE AMINOTRANSFERASE [2]: 106.33 u/L
BLOOD UREA NITROGEN [2]: 14 mg/dL
CARBON DIOXIDE [2]: 21.33 mmol/L
CHLORIDE [2]: 104 MEQ/L
CHOLESTEROL [2]: 57.67 mg/dL
CREATINE PHOSPHOKINASE [2]: 412.33 u/L
CREATININE [2]: 0.15 mg/dL
GLUCOSE [2]: 148 mg/dL
LACTATE DEHYDROGENASE [2]: 629 u/L
LIPASE [2]: 10 u/L
PHOSPHORUS [2]: 11.93 mg/dL
POTASSIUM [2]: 7.54 MEQ/L
SODIUM [2]: 142.93 MEQ/L
TOTAL BILIRUBIN [2]: 0.2 mg/dL
TOTAL PROTEIN [2]: 5.5 G/DL
URIC ACID [2]: 1.8 mg/dL
ABSOLUTE BASOPHIL [3]: 0 CELLS/uL
ABSOLUTE EOSINOPHIL [3]: 0 CELLS/uL
ABSOLUTE LYMPHOCYTE [3]: 13770.67 CELLS/uL
ABSOLUTE MONOCYTE [3]: 100.67 CELLS/uL
ABSOLUTE SEGMENTED NEUTROPHIL [3]: 1095.33 CELLS/uL
BASOPHIL [3]: 0%
EOSINOPHIL [3]: 0%
ERYTHROCYTE COUNT [3]: 5.87 x10E6/uL
HEMATOCRIT [3]: 36.53%
HEMOGLOBIN [3]: 14.37 G/DL
LEUKOCYTE COUNT [3]: 14.97 x10E3/uL
LYMPHOCYTE [3]: 92%
MEAN CORPUSCULAR HEMOGLOBIN [3]: 24.47 pg
MEAN CORPUSCULAR HEMOGLOBIN CONCENTRATION [3]: 39.33 G/DL
MEAN CORPUSCULAR VOLUME [3]: 62.27 fL
MONOCYTE [3]: 0.67%
NEUTROPHIL [3]: 7.33%
NUCLEATED RED BLOOD CELLS [3]: 0.33 /100WBC
PLATELET COUNT [3]: 1192.33 x10E3/uL
ALANINE AMINOTRANSFERASE [3]: 54.33 u/L
ALBUMIN [3]: 4.33 G/DL
ALKALINE PHOSPHATASE [3]: 480.33 u/L
ASPARTATE AMINOTRANSFERASE [3]: 83 u/L
BLOOD UREA NITROGEN [3]: 16.33 mg/dL
CARBON DIOXIDE [3]: 24.33 mmol/L
CHLORIDE [3]: 106 MEQ/L
CHOLESTEROL [3]: 77 mg/dL
CREATINE PHOSPHOKINASE [3]: 259.33 u/L
CREATININE [3]: 0.22 mg/dL
GLUCOSE [3]: 159.33 mg/dL
LACTATE DEHYDROGENASE [3]: 78.67 u/L
LIPASE [3]: 10.33 u/L
PHOSPHORUS [3]: 13.13 mg/dL
POTASSIUM [3]: 6.86 MEQ/L
SODIUM [3]: 148.2 MEQ/L
TOTAL BILIRUBIN [3]: 0.2 mg/dL
TOTAL PROTEIN [3]: 6.13 G/DL
URIC ACID [3]: 1.73 mg/dL
